Results published in patent US20250255976A1, “CATIONIC BIOMATERIALS AMELIORATE OBESITY-ASSOCIATED CHRONIC INFLAMMATION AND FOCAL ADIPOSITY” (THE TRUSTEES OF COLUMBIA UNIVERSITY IN THE CITY OF NEW YORK, priority 2022, published 2025).

Target: T1, TLR3 (Homo sapiens, UniProt O15455)
T1 construct: host or cells: HEK-Blue (HEK293) TLR3 reporter cells
T1 sequence (O15455 24-904): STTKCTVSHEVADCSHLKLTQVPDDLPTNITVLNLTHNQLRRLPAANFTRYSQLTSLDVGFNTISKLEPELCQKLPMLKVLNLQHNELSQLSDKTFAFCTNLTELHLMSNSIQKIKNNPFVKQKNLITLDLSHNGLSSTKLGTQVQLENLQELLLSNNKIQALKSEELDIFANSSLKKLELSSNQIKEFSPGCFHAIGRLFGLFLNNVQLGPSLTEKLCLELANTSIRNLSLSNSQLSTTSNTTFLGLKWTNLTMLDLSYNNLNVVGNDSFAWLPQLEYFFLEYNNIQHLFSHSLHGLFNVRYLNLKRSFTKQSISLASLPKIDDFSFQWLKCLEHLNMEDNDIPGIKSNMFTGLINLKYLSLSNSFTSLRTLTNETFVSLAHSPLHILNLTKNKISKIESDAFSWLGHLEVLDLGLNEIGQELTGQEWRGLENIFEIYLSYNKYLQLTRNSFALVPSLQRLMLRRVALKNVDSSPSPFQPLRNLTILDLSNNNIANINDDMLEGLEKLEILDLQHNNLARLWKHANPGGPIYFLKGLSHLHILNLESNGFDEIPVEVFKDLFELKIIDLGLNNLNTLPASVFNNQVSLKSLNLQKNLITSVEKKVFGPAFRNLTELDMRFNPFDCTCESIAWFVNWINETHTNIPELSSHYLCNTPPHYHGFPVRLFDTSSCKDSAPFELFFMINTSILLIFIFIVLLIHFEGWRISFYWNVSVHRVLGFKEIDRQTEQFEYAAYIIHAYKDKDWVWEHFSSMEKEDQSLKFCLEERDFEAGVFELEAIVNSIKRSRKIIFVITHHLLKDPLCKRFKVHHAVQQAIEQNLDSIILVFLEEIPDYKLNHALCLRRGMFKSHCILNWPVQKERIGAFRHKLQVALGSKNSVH
Assay: HEK-Blue TLR3 reporter cell SEAP assay, stimulated with murine plasma or liver total RNA
Type: cell-based
Conditions: plasma from DIO mice; inhibitor added 30 min before stimulus, or plasma digested with RNase I; FIG. 2F
Experimental: Stable TLR3-, 4-, 8-, and 9-overexpressing HEK-Blue and TLR3 knockout (KO) HEK-Dual Null cells (Invivogen) were propagated in high-glucose Dulbecco's modified Eagle's medium (DMEM) with 10% (v/v) fetal bovine serum (FBS, Corning) and maintained in growth medium supplemented with selective antibiotics following the manufacturer's instructions. RAW264.7 cells (ATCC) were cultured in high-glucose DMEM with 10% (v/v) FBS and then were subcultured by detachment with a cell scraper. C3H10T1/2 cells (ATCC) were cultured in high-glucose DMEM with 10% (v/v) FBS and 1× penicillin/streptomycin (Thermo Fisher). 3T3-L1 cells (ATCC) were cultivated in high-glucose DMEM with 10% (v/v) calf serum and 1× penicillin/streptomycin to maintain the undifferentiated status. At two days post-confluence, 3T3-L1 preadipocytes were induced to differentiate into adipocytes using an adipogenic cocktail containing 10 μg/mL insulin, 1 μM dexamethasone, and 0.5 mM 3-isobutyl-1-methylxanthine in 10% FBS DMEM. Two days post-induction, the cell medium was switched to the maintenance medium of 10% FBS DMEM supplemented with 2.5 μg/mL insulin.
HEK-Blue TLR3 cells (5×10^4 cells/well) were seeded and cultured overnight in 96-well plates in DMEM and then stimulated with murine plasma or liver total RNA. After 48 h, the activation of reporter cells was determined with a Quanti-blue medium (Invivogen). […]

Compound	activation of TLR3 by obese plasma
O=C(N[C@H](Cc1ccccc1)C(=O)O)c1sc2cc(F)ccc2c1Cl [TLR3 inhibitor]	blocked
ribonuclease I [RNase I]	blocked
